Experimental data as given in patent US4314999A, “N-Acyl derivatives of glucosamine having antitumor chemotherapeutic acitivity” (Proter S.p.A., priority 1980, dated 1982).

Tested on: Leukemia L 1210
Assay: Survival (MST, ILS, T/C%) of mice inoculated i.p. with Leukemia L 1210, compound given orally
Format: in vivo
Set-up: Increase in Life Span (ILS): unit not given here
Settings: for Survivors: of 10 mice
Experimental: The chemotherapeutic activity of the compound ethyl-D-glucosamyl-L-aspartoyl(β-ethoxy)-D-glucosamyl)m-di(2-chloroethylamino)-L-phenylalanyl-p-fluoro-L-phenylalanine was evaluated by conducting trials on mice injected with cells of Leukemia 1210 according to the procedure established in Cancer Chemotherapy Reports 1972, Vol. 3, No. 2: Protocols for Screening Chemical Agents and Natural Products Against Animal Tumors and other Biological Systems (Third Edition, National Cancer Institute, Bethesda, Maryland. The experimental model employed for the evaluation is:
Determination of the MST (Mean Survival Time) of BDGI mice inoculated intraperitoneally with 10^5 cells of lymphoid Leukenia L 1210 deriving from regular implants in DBA2 mice. The MST was determined both on the controls and on the animals treated, and thereafter an evaluation was made of the ILS (Increased Life Span) according to Cancer Chemotherapy Reports 1972, Vol. 3, No. 2 (Protocols for Screening Chemical Agents and Natural Products Against Animal Tumors and other Biological Systems--Third Edition, National Cancer Institute, Bethesda, Maryland). In this case, the compounds were tested only after oral administration starting from the 3rd day after implant of the tumor and continuing on the 17th, 25th and 35th day. On the 52nd day, any surviving animals were sacrificed and the experiment discontinued and evaluated.
The formula for the calculation of mean survival time is: [formula] wherein Day A=Day on which deaths are no longer considered due to drug toxicity - For Leukemia L 1210 day A=day 6
Day B=This day cannot be considered here because all control animals died within the 11th day and survivors were not observed.
S=The total of survivors from 6th day onwards
S(A-1)=Number of survivors at the end of day 5 (A-1)=S5
The ILS and the ratio T/C% are calcuated as follows: […]

[1] = Table, oral 25, 15, 10, 5 mg/Kg on days 3, 17, 25, 35, L 1210 mice

With “Ethyl-D-glucosamyl-L-aspartoyl(β-ethoxy)-D-glucosamyl-m-di-(2-chloroethyl)amino-L-phenylalanyl-p-fluoro-phenylalanine” the I.L.S. [1] was 186.4, the M.S.T. [1] was 32.7 and the T/C % [1] was 311.4%. The Survivors (day 3 from inoculum, oral 25 mg/Kg given this day) was 10, the Survivors (day 4 from inoculum) was 10 and the Survivors (day 5 from inoculum) was 10. It also gave a Survivors (day 6 from inoculum) of 10, a Survivors (day 7 from inoculum) of 10 and a Survivors (day 8 from inoculum) of 10. The Survivors (day 9 from inoculum) was 10, the Survivors (day 10 from inoculum) was 10 and the Survivors (day 11 from inoculum) was 10. It also gave a Survivors (day 12 from inoculum) of 10, a Survivors (day 13 from inoculum) of 10 and a Survivors (day 14 from inoculum) of 10. It also gave a Survivors (day 15 from inoculum) of 10, a Survivors (day 16 from inoculum) of 10 and a Survivors (day 17 from inoculum, oral 15 mg/Kg given this day) of 10. It also gave a Survivors (day 18 from inoculum) of 10, a Survivors (day 19 from inoculum) of 8 and a Survivors (day 20 from inoculum) of 8. The Survivors (day 21 from inoculum) was 6, the Survivors (day 22 from inoculum) was 6 and the Survivors (day 23 from inoculum) was 6. The Survivors (day 24 from inoculum) was 6, the Survivors (day 25 from inoculum, oral 10 mg/Kg given this day) was 6 and the Survivors (day 26 from inoculum) was 6. It also gave a Survivors (day 27 from inoculum) of 6, a Survivors (day 28 from inoculum) of 6 and a Survivors (day 29 from inoculum) of 6. It also gave a Survivors (day 30 from inoculum) of 5, a Survivors (day 31 from inoculum) of 5 and a Survivors (day 32 from inoculum) of 5. It also gave a Survivors (day 33 from inoculum) of 5, a Survivors (day 34 from inoculum) of 4 and a Survivors (day 35 from inoculum, oral 5 mg/Kg given this day) of 4. It also gave a Survivors (day 36 from inoculum) of 4, a Survivors (day 37 from inoculum) of 4 and a Survivors (day 38 from inoculum) of 4. For the same substance, the Survivors (day 39 from inoculum) was 4, the Survivors (day 40 from inoculum) was 3 and the Survivors (day 41 from inoculum) was 3. It also gave a Survivors (day 42 from inoculum) of 2, a Survivors (day 43 from inoculum) of 2 and a Survivors (day 44 from inoculum) of 2. The Survivors (day 45 from inoculum) was 2, the Survivors (day 46 from inoculum) was 2 and the Survivors (day 47 from inoculum) was 2. The Survivors (day 48 from inoculum) was 2, the Survivors (day 49 from inoculum) was 1 and the Survivors (day 50 from inoculum) was 1. The Survivors (day 51 from inoculum) was 1, the Survivors (day 52 from inoculum) was 0 and the “Mean Survival Time (MST)” value (ten mice, 10^5 L 1210 cells i.p., oral 25, 15, 10, 5 mg/kg on days 3, 17, 25, 35) was 32.7 days. The “Increase in Life Span (ILS)” value (ten mice, 10^5 L 1210 cells i.p., oral 25, 15, 10, 5 mg/kg on days 3, 17, 25, 35, calculated as 311.4-125) was 186.4 and the “T/C% (MST of the treated group divided by the MST of the control group)” value (ten mice, 10^5 L 1210 cells i.p., oral 25, 15, 10, 5 mg/kg on days 3, 17, 25, 35, control MST 10.5) was 311.4%.
